Laboratory results published in patent publication US4154932A (priority 1977, dated 1979).
Like-named read-outs stand apart in the source and are kept apart here.

What was measured:
[1] = tested on: Straub Tail induced by oxymorphone; test: Antagonism of oxymorphone-induced Straub Tail (antagonist activity); format: in vivo, mouse; conditions: for ED50: Mus musculus
Description: ^2 Antagonism of Straub Tail induced by oxymorphone (2 mg/kg, s.c.) i

[2] = tested on: Morphine Antagonism Rat Tail Flick; test: Morphine antagonism, Rat Tail Flick (antagonist activity); format: in vivo; conditions: Table 3; for ED50: Rattus norvegicus; for Morphine Antagonism Rat Tail Flick po/sc: ratio of ED50 po/sc
[3] = tested on: phenylquinone induced writhings; test: animal or person; conditions: for ED50: Mus musculus
Description: In vivo testing was conducted on many of the compounds of the present invention.

Rat Writhing = Rat Writhing (analgetic activity); format: in vivo; conditions: Table 2; for ED50: Rattus norvegicus
Rat Vocalization = Rat Vocalization (analgetic activity); format: in vivo; conditions: Table 2; for ED50: Rattus norvegicus
[4] = tested on: withdrawal jumping (abstinence); test: Primary physical dependence test in mice (withdrawal jumping on naloxone challenge); conditions: repeated sc injections for two days
Description: (§1) Buprenorphine and (-)XI were tested for physical dependence liability in mice. […] The compounds were then tested as substitutes for morphine in withdrawn morphine-dependent mice.

[5] = tested on: withdrawn morphine-dependent mice; test: Substitution for morphine in withdrawn morphine-dependent mice; conditions: 1 mg/kg sc, or less
Description: as §1

[6] = Physical dependence liability in man (predicted from mouse models); conditions: prediction from the mouse test model
Description: as §1

[7] = sc, Table 3, read-out: Antagonist activity ED50, Oxymorphone-Induced Straub Tail sc
[8] = po, read-out: Antagonist activity ED50, Morphine Antagonism Rat Tail Flick po
[9] = sc, read-out: Antagonist activity ED50, Morphine Antagonism Rat Tail Flick sc
[10] = sc, read-out: Agonist Activity, Phenylquinone Writhing ED50
[11] = sc, mice, Table 1, oxymorphone 2 mg/kg, s.c., read-out: Antagonist Activity, Oxymorphone Straub Tail ED50

C=CCN1CC[C@]23c4c5ccc(O)c4O[C@H]2C(=O)CC[C@@]3(O)[C@H]1C5 [Naloxone, reference compound]
ED50 ([1]; po, Table 3, read-out: Antagonist activity ED50, Oxymorphone-Induced Straub Tail po): 13 mg/kg
ED50 [1, 7]: 0.09 mg/kg
Oxymorphone-Induced Straub Tail po/sc ([1]; ratio of ED50 po/sc, Table 3): 144
ED50 [2, 8]: 2.7 mg/kg
ED50 [2, 9]: 0.01 mg/kg
Morphine Antagonism Rat Tail Flick po/sc [2]: 270

CN1CCC23COCCC2C1Cc1ccc(O)cc13 (racemic) [(±)-VI]
ED50 [3, 10]: 0.34 mg/kg
ED50 [1, 11]: > 40 mg/kg

Oc1ccc2c(c1)[C@]13CCN(CC4CC4)[C@H](C2)[C@@H]1CCOC3 (racemic) [(±)-XI, 17-Cyclopropylmethyl-3-hydroxy-6-oxamorphinan]
ED50 [3, 10]: 0.037 mg/kg
ED50 [1, 11]: 0.76 mg/kg

CO[C@@]12CC[C@@]3(C[C@@H]1[C@](C)(O)C(C)(C)C)[C@H]1Cc4ccc(O)c5c4[C@@]3(CCN1CC1CC1)[C@H]2O5 [Buprenorphine]
ED50 ([3]; central, read-out: Analgetic activity ED50, Intraventricular): 0.0004 mg/kg
ED50 ([3]; po, read-out: Analgetic activity ED50, Mouse Writhing po): 0.27 mg/kg
ED50 ([3]; sc, read-out: Analgetic activity ED50, Mouse Writhing sc): 0.021 mg/kg
Mouse Writhing po/sc ([3]; ratio of ED50 po/sc, Table 2): 13
sc/I. Vent. ([3]; ratio of ED50 sc/intraventricular, Table 2): 53
ED50 [1, 7]: 0.46 mg/kg
ED50 (Rat Writhing; po, read-out: Analgetic activity ED50, Rat Writhing po): 0.16 mg/kg
ED50 (Rat Writhing; sc, read-out: Analgetic activity ED50, Rat Writhing sc): 0.013 mg/kg
Rat Writhing po/sc (Rat Writhing; ratio of ED50 po/sc): 12
ED50 (Rat Vocalization; po, read-out: Analgetic activity ED50, Rat Vocalization po): ~0.08 mg/kg
ED50 (Rat Vocalization; sc, read-out: Analgetic activity ED50, Rat Vocalization sc): 0.005 mg/kg
Rat Vocalization po/sc (Rat Vocalization; ratio of ED50 po/sc): ~ 16
ED50 [2, 8]: 0.92 mg/kg
ED50 [2, 9]: 0.063 mg/kg
Morphine Antagonism Rat Tail Flick po/sc [2]: 15
Withdrawal jumping (primary physical dependence) [4]: did not exhibit withdrawal jumping (abstinence)
Substitution for morphine [5]: complete substitution for morphine
Predicted physical dependence liability in man [6]: morphine-like

COc1ccc2c(c1)[C@]13CCN(CC4CC4)[C@H](C2)[C@@H]1CCOC3 [(-)-X, (-)-17-Cyclopropylmethyl-3-methoxy-6-oxamorphinan]
ED50 [3, 10]: 0.14 mg/kg
ED50 [1, 11]: ~6 mg/kg

COc1ccc2c(c1)[C@]13CCN[C@H](C2)[C@@H]1CCOC3 (racemic) [(±)-VIII, 3-methoxy-6-oxamorphinan]
ED50 [3, 10]: ~40 mg/kg
ED50 [1, 11]: > 40 mg/kg
